Source: PMC5691054, “An unexpected protein interaction promotes drug resistance in leukemia” (Nature Communications, 2017)
Entries after “also recorded” stand apart in the source; their conditions may differ. Where no end group is shown, it is not given here. The star is where a group is joined. Biotin = O=C1N[C@H]2[C@H](CS[C@H]2CCCCC(=O)*)N1; FAM = fluorescein

Columns and labels:
[1] = system: murine hematopoietic progenitor cells (HPC)
[2] = system: MO7e cells; test: Cytarabine cytotoxicity in MO7e cells; format: cell-based, Human; settings: in words
Protocol: MO7e cells were seeded at 1500 cells per well of a 96-well plate. Cells were then treated with Cytarabine at increasing concentrations ranging from 0.5 to 500 μM for 4 h in serum-free media. Cells were washed three times with PBS and replaced with fresh complete media for 68 h. Cell viability analysis was determined using CellTiter Glo. Where applicable, cells were treated with 10 nM Antimycin A. IC50 values were calculated using GraphPad Prism.

[3] = system: ABCC4 plasma membrane localization in HEK293 cells expressing MPP1 and GFP-ABCC4; test: ABCC4 plasma membrane localization (confocal microscopy); format: cell-based, Human
Protocol: Peptides containing or lacking the ABCC4-PDZ motif were fused with the cell penetrating HIV-TAT peptide. These peptides were tested for their effect on ABCC4 plasma membrane localization. HEK293 cells were transfected with MPP1 and GFP-ABCC4 and the ER protein, calreticulin. The plasma membrane was counter-stained with wheat-germ-agglutinin (WGA) labeled with Alexa647 after treatment with either ABCC4-PDZ or ABCC4ΔC peptide.
HEK293 cells were seeded on chambered coverglass slides (LAB-TEK) 48 h before transfection with plasmid DNA (250 ng) encoding pAc-GFP-ABCC4 or ABCC4ΔC and pCal plasmid encoding the ER resident protein calreticulin conjugated to RFP (Origene). Transfection was performed using Lipofectamine 2000 as per the manufacturer’s instructions. Immediately prior to visualizing cells, cells were counterstained with the plasma membrane marker wheat-germ agglutinin (WGA) conjugated to Alexa-647 (Invitrogen). All confocal microscopy images were acquired on a 3i Marianas system configured with an Yokagowa CSU-X spinning disk confocal microscope utilizing a ×63 Zeiss objective, using the 488 (GFP), 561 (RFP), and 660 (far red) laser lines.

[4] = system: murine hematopoietic progenitor cells (HPC); test: Hematopoietic progenitor cell serial replating in methylcellulose; settings: HPC transduced with MPP1; cell penetrating peptide, fresh at each replating; n = 3
[5] = system: MO7e cells; test: 6MP cytotoxicity in MO7e cells and CRISPR knock-outs; format: cell-based, Human
[6] = molecular target: T1, MPP1 and ABCC4 protein interaction (Homo sapiens, UniProt Q00013); test: Competition of ABCC4 C-terminal peptides with MPP1–ABCC4 complex (GST-ABCC4-C100 pull-down, immunoblot); format: biochemical
T1 construct: For full-length expression of MPP1, the pTriX vector containing an N-terminal His tag was used to create the His-S-MPP1 fusion protein; made in house; host or cells: E. coli
T1 sequence (Q00013 1-466): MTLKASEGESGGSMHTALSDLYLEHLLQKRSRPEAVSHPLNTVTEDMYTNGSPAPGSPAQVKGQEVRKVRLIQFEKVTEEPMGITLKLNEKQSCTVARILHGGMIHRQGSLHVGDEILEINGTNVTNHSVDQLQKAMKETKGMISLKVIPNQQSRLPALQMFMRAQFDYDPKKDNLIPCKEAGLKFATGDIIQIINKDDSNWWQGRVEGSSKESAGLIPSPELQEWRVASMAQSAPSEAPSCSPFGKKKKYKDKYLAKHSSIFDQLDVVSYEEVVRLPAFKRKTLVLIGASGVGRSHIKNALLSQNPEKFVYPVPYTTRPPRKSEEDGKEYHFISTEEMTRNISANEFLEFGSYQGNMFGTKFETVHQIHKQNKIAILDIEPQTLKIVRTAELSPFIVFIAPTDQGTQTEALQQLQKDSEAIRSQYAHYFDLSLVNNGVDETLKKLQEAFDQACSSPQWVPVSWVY
Protocol: C-terminal peptides of ABCC4 containing the carboxyl-terminal 15 amino acids ([…]-COOH, ABCC4-PDZ) or carboxyl-terminal 11 amino acids lacking the PDZ-binding motif ([…]-COOH, ABCC4ΔC) conjugated to the cell penetrating peptide TAT ([…]) were chemically synthesized by the Hartwell Center for Bionformatics and Biotechnology at SJCRH. ABCC4 peptides (1–4 μM) were mixed with purified GST-ABCC4-C100 (50 nM) (Supplementary Fig. 10 ) before addition of His-S-MPP1 (3.6 nM) and allowed to mix for 2 h at 24 °C. The GST-ABCC4-C100 was immobilized on glutathione beads, and washed 3 times. Protein complexes were eluted from the beads, separated by SDS-PAGE, and immunoblotted with rabbit anti-MPP1.

[7] = system: HEK293 cells; test: 6MP cytotoxicity / drug resistance in transfected HEK293 cells; format: cell-based, Human; settings: HEK293 co-expressing ABCC4 and MPP1; cell penetrating peptide (20 μM in methods; various amounts), 96 h, in words
Protocol: HEK293 cells transfected with ABCC4 or ABCC4ΔC in the presence or absence of MPP1, MO7e, and Meg01 cells were treated with 10 concentrations of 6MP, ranging from 1 to 1000 µM, for 96 h. Cell viability analysis was determined using CellTiter Glo (Promega). Where applicable, cell penetrating peptides conjugated to the PDZ-binding motif of ABCC4 (labeled either ABCC4-PDZ or ABCC4ΔC) were added to the cells at 20 μM. Media was changed daily and new ABCC4-PDZ/ABCC4ΔC peptide and 6MP was added. IC50 values were calculated using GraphPad Prism.

[8] = molecular target: T2, MPP1, endogenous in MO7e cells (human (endogenous in MO7e), UniProt Q00013 1-466); test: cell-based or functional assay
T2 sequence (looked up): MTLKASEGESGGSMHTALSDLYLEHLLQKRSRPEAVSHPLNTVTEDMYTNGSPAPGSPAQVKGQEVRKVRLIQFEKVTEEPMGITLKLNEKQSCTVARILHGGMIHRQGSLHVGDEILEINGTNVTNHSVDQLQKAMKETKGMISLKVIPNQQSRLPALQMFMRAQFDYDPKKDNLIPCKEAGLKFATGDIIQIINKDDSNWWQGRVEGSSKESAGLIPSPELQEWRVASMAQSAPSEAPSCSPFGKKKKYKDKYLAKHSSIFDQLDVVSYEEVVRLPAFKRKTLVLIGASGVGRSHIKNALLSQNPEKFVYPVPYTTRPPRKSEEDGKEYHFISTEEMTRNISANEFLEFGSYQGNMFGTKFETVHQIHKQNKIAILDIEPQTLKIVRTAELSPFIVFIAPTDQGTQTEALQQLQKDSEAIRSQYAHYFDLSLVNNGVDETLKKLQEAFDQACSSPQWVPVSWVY

[9] = molecular target: T3, His-S-MPP1 fusion protein (full-length MPP1) (UniProt Q00013 1-466); test: FRET or BRET; TR-FRET: various concentrations of B-ABCC4 with 5 nM Tb-anti-His, 50 nM AF488-streptavidin and 5 nM His-S-MPP1 in DPBS, 0.01% BSA, 1 mM DTT, 0.5% DMSO; one site total binding fit; settings: both partners purified
T3 construct: MPP1 (p55), full length, expressed from the pTriX vector; the fragments of the same protein are numbered up to amino acid 466; also called purified MPP1; source: E. coli, purified (nickel column); not shown: His tag, N-terminal, kept
T3 sequence (looked up): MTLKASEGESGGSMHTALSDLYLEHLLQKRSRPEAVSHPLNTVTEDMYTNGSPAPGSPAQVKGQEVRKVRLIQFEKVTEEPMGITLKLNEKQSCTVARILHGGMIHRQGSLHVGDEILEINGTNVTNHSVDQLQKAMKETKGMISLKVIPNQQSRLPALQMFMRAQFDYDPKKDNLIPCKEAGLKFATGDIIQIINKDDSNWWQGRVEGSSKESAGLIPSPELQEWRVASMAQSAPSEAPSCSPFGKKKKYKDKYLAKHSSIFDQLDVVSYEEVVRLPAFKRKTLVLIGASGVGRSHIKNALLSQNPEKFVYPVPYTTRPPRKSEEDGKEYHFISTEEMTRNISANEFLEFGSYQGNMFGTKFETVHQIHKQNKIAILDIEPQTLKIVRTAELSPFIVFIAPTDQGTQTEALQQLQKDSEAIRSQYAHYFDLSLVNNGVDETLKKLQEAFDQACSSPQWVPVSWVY

[10] = molecular target: T3, His-S-MPP1 fusion protein (full-length …); test: fluorescence polarisation; 100 nM FAM-ABCC4 incubated with various concentrations of full-length MPP1; estimated constant; settings: both partners purified
[11] = molecular target: T3, His-S-MPP1 fusion protein (full-length …); test: pull-down; competition: TAT-ABCC4 peptides (1–4 μM) mixed with GST-ABCC4-C100 (50 nM) before addition of His-S-MPP1 (3.6 nM), 2 h at 24 °C; GST-ABCC4-C100 immobilized on glutathione beads, washed 3 times; immunoblot with rabbit anti-MPP1; settings: both partners purified

SNGQPSTLTIFETAL-OH [ABCC4-PDZ, carboxyl-terminal 15 amino acids of ABCC4 conjugated to the cell penetrating peptide TAT]
toxicity to normal hematopoietic progenitors [1]: not toxic to normal | effect of peptide on cytarabine sensitivity ([2]; MO7e lacking ABCC4): no additional sensitivity to cytarabine | effect of peptide on cytarabine sensitivity ([2]; MO7e, cytarabine 0.5–500 μM 4 h, then 68 h): sensitized to cytarabine cytotoxicity; also recorded: specifically sensitized MO7e cells to cytarabine | effect of co-treatment on IC50 for cytarabine ([2]; peer review file): reduce the IC50 for cytarabine | transfected cells exhibiting loss of ABCC4 at the plasma membrane ([3]; cell penetrating peptide (TAT fused; 10 μM in Supplementary Fig. 4), n = 20 fields of view): over 90% | effect on ABCC4 plasma membrane localization ([3]; in words, confocal microscopy): reduced the ABCC4 plasma membrane localization | effect on MPP1-driven methylcellulose replating [4]: suppressed methylcellulose replating | effect of peptide on 6MP sensitivity ([5]; cell permeable peptide (10 μM), in words): sensitizes MO7e cells to 6MP | reduction of 6MP IC50 by peptide ([5]; cell permeable peptide (10 μM, Supplementary Fig. 5c)): 2.6 fold | disruption of the MPP1 and ABCC4 protein interaction ([6]; in words, in vitro competition experiment): potently disrupted complex formation | greater affinity of MPP1 for ABCC4 vs. glycophorin c ([6]; suggested by the IC50 of ~300 nM): 15 fold | effect of peptide on 6MP IC50 [7]: dose-dependently suppressed the IC50 of 6MP with the highest dose almost completely reversing the salutary effect of MPP1

B1: ABCC4, endogenous in MO7e cells (natural protein, human (endogenous in MO7e), UniProt O15439 1-1325, looked up)
chain: MLPVYQEVKPNPLQDANLCSRVFFWWLNPLFKIGHKRRLEEDDMYSVLPEDRSQHLGEELQGFWDKEVLRAENDAQKPSLTRAIIKCYWKSYLVLGIFTLIEESAKVIQPIFLGKIINYFENYDPMDSVALNTAYAYATVLTFCTLILAILHHLYFYHVQCAGMRLRVAMCHMIYRKALRLSNMAMGKTTTGQIVNLLSNDVNKFDQVTVFLHFLWAGPLQAIAVTALLWMEIGISCLAGMAVLIILLPLQSCFGKLFSSLRSKTATFTDARIRTMNEVITGIRIIKMYAWEKSFSNLITNLRKKEISKILRSSCLRGMNLASFFSASKIIVFVTFTTYVLLGSVITASRVFVAVTLYGAVRLTVTLFFPSAIERVSEAIVSIRRIQTFLLLDEISQRNRQLPSDGKKMVHVQDFTAFWDKASETPTLQGLSFTVRPGELLAVVGPVGAGKSSLLSAVLGELAPSHGLVSVHGRIAYVSQQPWVFSGTLRSNILFGKKYEKERYEKVIKACALKKDLQLLEDGDLTVIGDRGTTLSGGQKARVNLARAVYQDADIYLLDDPLSAVDAEVSRHLFELCICQILHEKITILVTHQLQYLKAASQILILKDGKMVQKGTYTEFLKSGIDFGSLLKKDNEESEQPPVPGTPTLRNRTFSESSVWSQQSSRPSLKDGALESQDTENVPVTLSEENRSEGKVGFQAYKNYFRAGAHWIVFIFLILLNTAAQVAYVLQDWWLSYWANKQSMLNVTVNGGGNVTEKLDLNWYLGIYSGLTVATVLFGIARSLLVFYVLVNSSQTLHNKMFESILKAPVLFFDRNPIGRILNRFSKDIGHLDDLLPLTFLDFIQTLLQVVGVVSVAVAVIPWIAIPLVPLGIIFIFLRRYFLETSRDVKRLESTTRSPVFSHLSSSLQGLWTIRAYKAEERCQELFDAHQDLHSEAWFLFLTTSRWFAVRLDAICAMFVIIVAFGSLILAKTLDAGQVGLALSYALTLMGMFQWCVRQSAEVENMMISVERVIEYTDLEKEAPWEYQKRPPPAWPHEGVIIFDNVNFMYSPGGPLVLKHLTALIKSQEKVGIVGRTGAGKSSLISALFRLSEPEGKIWIDKILTTEIGLHDLRKKMSIIPQEPVLFTGTMRKNLDPFNEHTDEELWNALQEVQLKETIEDLPGKMDTELAESGSNFSVGQRQLVCLARAILRKNQILIIDEATANVDPRTDELIQKKIREKFAHCTVLTIAHRLNTIIDSDKIMVLDSGRLKEYDEPYVLLQNKESLFYKMVQQLGKAEAAALTETAKQVYFKRNYPHIGHTDHMVTNTSNGQPSTLTIFETAL
IC50 of 6MP in MO7e cells with the C-terminal ABCC4 peptide [8]: 2.6 fold

B2: Biotinylated C-terminal ABCC4 peptide (biotin-[residues removed]-COOH) (peptide)
peptide: Biotin-GHTDHMVTNTSNGQPSTLTIFETAL-OH
modifications: not fully specified; printed as biotin-GHTDHMVTNTSNGQPSTLTIFETAL-COOH
notes: ABCC4, human, C-terminal 25 amino acids with the PDZ motif ETAL; Detected through Alexa Fluor 488 streptavidin in the TR-FRET assay; also called B-ABCC4; ABCC4-PDZ peptide; source: synthetic peptide
Kd [9]: ~511 nM

B3: Fluorescein-conjugated C-terminal peptide of ABCC4 (FAM-TIFETAL-COOH) (peptide)
peptide: {FAM}-TIFETAL-OH
notes: ABCC4, human, C-terminal 7 amino acids with the PDZ motif ETAL; also called FAM-ABCC4; fluorescein-labeled ABCC4-PDZ motif peptide; source: synthetic peptide
Kd [10]: ~600 nM

B4: ABCC4-PDZ peptide (carboxyl-terminal 15 amino acids of ABCC4) conjugated to the cell penetrating peptide TAT (peptide)
peptide: YGRKKRRQRRRSNGQPSTLTIFETAL
notes: cell penetrating HIV-TAT peptide; ABCC4, human, carboxyl-terminal 15 amino acids with the PDZ motif ETAL, free COOH; also called cell penetrating ABCC4-PDZ peptide; source: synthetic peptide
IC50 [11]: ~300 nM
